Test results as given in the METLIN SMRT retention time set (Domingo-Almenara et al. 2019).

Experiment: gradient 5% acetonitrile 3 min, to 50% in 2 min, to 85% in 15 min, held 3 min, 100 µL/min
Settings: column: Zorbax Extend-C18 2.1 x 50 mm; eluents: water / acetonitrile, 0.1% formic acid
Summary of the method: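 The system's dead and dwell volumes were 40 μL and 900 μL, with a Zorbax Extend-C18 column (2.1 × 50 mm, 1.8 μm) run at 100 μL/min in water and acetonitrile containing 0.1% formic acid each. Pure standards were analyzed in mixtures of ~100 molecules by HPLC–quadrupole time-of-flight mass spectrometry in positive and negative ionization mode. Retention time was assigned from computationally picked, manually inspected adduct peaks.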

RP-LC retention time [s] | SMILES
698 | Cc1ccc(-c2cc(C(=O)N3CCC(NC(=O)c4cc(C5CC5)[nH]n4)CC3)[nH]n2)cc1C
826 | Cc1ccc(CNC(=O)c2nnc(-c3ccc(S(=O)(=O)N(C)C)cc3)o2)o1
633 | COc1ccc(NC(=O)NCCc2cn(C)c3ncccc23)cc1
603 | CS(=O)(=O)c1cccc(C(=O)Nc2nnc(-c3ccno3)o2)c1
682 | COc1ccc(S(=O)(=O)Nc2cc(-c3cn4ccccc4n3)ccc2C)cc1C
764 | O=C(Cn1c2c(c(=O)n(C3CCCCC3)c1=O)CCC2)NCc1ccco1
686 | Cc1cnc(C2CCC2)n1CC1CCN(S(=O)(=O)c2ccccc2)CC1
676 | COc1ccc(C(=O)N2CCC3(CC2)NC(=O)c2ccccc2N3C)cc1OC
1020 | O=C(c1cc(F)ccc1Cl)N1CCc2nc(-c3ccc(F)cc3)ncc2C1
650 | CCOC(=O)N1CCN(C(=O)C2CN(c3nc4ccc(OC)cc4s3)C2)CC1
871 | COc1ccc(-n2cc(C(=O)NCCc3c[nH]c4ccc(F)cc34)nn2)cc1
838 | O=C(NC1CCN(c2cc(-c3ccccc3)[nH]n2)CC1)c1ccc(Cl)s1
652 | Cc1ccn2cc(-c3ccc(NC(=O)c4cccc([N+](=O)[O-])c4)cc3)nc2n1
724 | CCOC(=O)c1ccc(NS(=O)(=O)N2CCOCC2)cc1
892 | Cc1cccc(NS(=O)(=O)c2cn(C(C)C)c3ncccc23)c1
593 | CC(=O)Nc1ccc(S(=O)(=O)N2CCCCC2c2cccnc2)cc1 (centres undefined)
846 | CCc1ccc(CNC(=O)C2CCN(C(=O)c3ncn4c3COC(c3ccc(F)cc3)C4)CC2)cc1 (centres undefined)
625 | COc1ccccc1NC(=O)N1C[C@@H](F)C[C@H]1C(=O)N1CCOCC1
653 | Cc1nnc(SCC(=O)N2CCN(c3nnnn3-c3ccccc3)CC2)s1
758 | Cc1ccc(Cc2noc(CN3CCCC3=O)n2)cc1
709 | COCCCNC(=O)N1CCCN(C2=NS(=O)(=O)C(c3ccc(F)cc3)=C2C)CC1
690 | CC1CCCN(CC2CCN(S(=O)(=O)Cc3ccc(Cl)cc3)CC2)C1 (centres undefined)

RP-LC retention time [s] | SMILES
846 | CC(C)CCNC(=O)c1ccc2c(c1)CCCN2S(C)(=O)=O
780 | O=C(NC1CC1)c1ccc(OCC2CCN(C(=O)Cc3cccs3)CC2)cc1
589 | CC(=O)Nc1cc(C(=O)NCCN(C)C)ccc1Sc1ccc(Cl)cc1
850 | O=C(N[C@H]1C[C@@H]2C[C@H]1N(C(=O)c1ccc(F)c(Cl)c1)C2)c1ccccc1
626 | O=C(NCc1ccccn1)c1c2c(nc3ccccc13)C(=O)N(C1CCCCC1)C2
749 | CC(C)NC(=O)c1cccn(-c2ccc(NC(=O)C(C)(C)C)cc2)c1=O
721 | Fc1cccc(N2CC3(CCNCC3)C2c2ccccc2)c1 (centres undefined)
610 | CC1CCN(CCCNC(=O)C2CCc3sc(C(=O)N4CCCC4)cc3C2)CC1 (centres undefined)
734 | O=C(NCC1Cn2cccc2C(=O)N1Cc1ccccc1)NC1CCCC1 (centres undefined)
798 | Cc1ccccc1CC(=O)N1CCC2(CC1)NC(=O)c1ccc(F)cc1N2C
1010 | O=C(Nc1cc(-c2cccs2)no1)c1cc(F)cc(F)c1
634 | CCN1CCN(CCCNc2ccc(-c3nc(-c4cccc(F)c4)no3)cn2)CC1
644 | Cc1cc(=O)n(CC(=O)Nc2ccc3c(c2)OCO3)c(N2CCOCC2)n1
756 | COc1ccccc1NC(=O)N1CCC2(CC1)NC(=O)c1cc(F)ccc1N2C
953 | Cc1ccc(C)c(-n2ccn(Cc3nc(-c4ccccc4C)no3)c(=O)c2=O)c1
656 | O=C(NCc1ccc(N2CCOCC2)cc1)c1cn2nc(Cl)ccc2n1
792 | Cc1noc2ncn(CC(=O)NCCc3ccccc3Cl)c(=O)c12
926 | COc1ccc(Cl)cc1NC(=O)CN1C(=O)CC(C)Sc2ccccc21 (centres undefined)
735 | COc1cc2nc(C(=O)N3CCCCC3)cc(Nc3ccc(F)c(Cl)c3)c2cc1OC
678 | CCCNC(=O)C1CCN(c2ccc(SCC(=O)Nc3cccc(Cl)c3C)nn2)CC1
692 | Cc1ccc(-c2cn3cc(C(=O)NC(C)(C)C)ccc3n2)cc1
1060 | Cc1cc(C)n2c(Nc3cccc(C(F)(F)F)c3)c(-c3cc(Br)ccc3O)nc2n1

RP-LC retention time [s] | SMILES
1220 | Fc1cccc(-c2nc(-c3ccc(-n4cccn4)nc3)no2)c1
861 | CCSCCOC(=O)C1=C(C)NC2=C(C(=O)CCC2)C1c1cccc(OC)c1OC (centres undefined)
835 | Cc1csc(-c2cc(S(=O)(=O)NCc3ccc4c(c3)OCO4)cn2CC(=O)N2CCCC2)n1
759 | O=c1ccc(-c2ccco2)nn1CCCNS(=O)(=O)/C=C/c1ccccc1
671 | Cc1nc(C)c(C(=O)NCC2Cn3cccc3C(=O)N2CC(C)C)s1 (centres undefined)
682 | CC1CCCCN1CCCNC(=O)Cn1ccc2cc(S(=O)(=O)N3CCCCCC3)ccc21 (centres undefined)
620 | O=C(COc1ccccc1)N1CC(n2cnnc2C2CC2)C1
666 | O=C(c1cccs1)N1CCCn2cc(-c3ccccc3F)nc21
802 | O=C(Nc1ccc(F)cc1F)N1CCC(N2CCN(Cc3ccc(F)cc3)C2=O)CC1
666 | Cc1cc2n(n1)CCC(=O)N2CCCC(=O)NCCc1ccccc1
921 | O=S(=O)(Nc1cc(-c2ccoc2)no1)c1ccc2c(c1)CCC2
676 | CC(=O)NCCc1csc(C2CCN(C(=O)C3CCCC3)CC2)n1
979 | O=C(Cn1nc(N2CCSCC2)c2ccccc2c1=O)Nc1ccc(Cl)cc1
796 | O=C(c1ccc2c(c1)OCO2)N1CCCn2nc(-c3cccs3)cc2C1
798 | COc1cccc(CC(=O)N2CCC3(CC2)NC(=O)c2cc(C)ccc2N3C)c1
733 | O=C(NCCS(=O)(=O)N1CCc2ccccc2C1)c1cc(=O)c2ccccc2o1
869 | Cc1ccccc1NC(=O)N(C)CCc1noc(COc2ccccc2)n1
649 | Cc1nnc(-c2cc(S(=O)(=O)Nc3ccc(S(N)(=O)=O)cc3)c(C)n2C)o1
856 | CCC(C)C(NC(=O)c1ccc(C(C)C)cc1)C(=O)Nc1nc2ccccc2[nH]1 (centres undefined)
574 | CN(C)S(=O)(=O)c1ccc(-c2nnc(C(=O)NCCN3CCCC3)o2)cc1
942 | Cc1ccc2oc(C(=O)Nc3nccs3)c(C)c2c1
1030 | Cc1sc(-c2noc(C(C)C)n2)cc1S(=O)(=O)N1CCC(C(=O)NCc2cccs2)CC1

RP-LC retention time [s] | SMILES
641 | O=C(Nc1nncs1)C1CCN(C(=O)c2ccccc2F)CC1
551 | OC1(c2ccccc2)CN(c2ccccc2)C2=[N+]1CCS2 (centres undefined)
575 | CCOC(=O)c1c(C)[nH]c(C(=O)N2CCC(CC(=O)NCCN3CCOCC3)CC2)c1C
559 | CCN1CCN(CCNC(=O)C2CCN(c3nc4cccnc4s3)CC2)CC1
580 | CCN1CCN(C(=O)Cn2c3ccccc3c3cnn(C)c(=O)c32)CC1
963 | O=C1NC2(CCN(C(=O)NCc3ccccc3)CC2)Oc2ccccc21
751 | COc1ccccc1N1CCN(CCCCN2C(=O)c3ccccc3C2=O)CC1
912 | O=C(Cn1nc(C(=O)N2CCCC2)c2ccccc21)Nc1cccc(C(F)(F)F)c1
806 | Cn1cc(S(=O)(=O)N2CCOCC2)cc1C(=O)N1CCN(c2ccc(F)cc2)CC1
1160 | Cc1ccc(-c2nc(C3CC(=O)N(c4ccc(F)c(Cl)c4)C3)no2)cc1 (centres undefined)
719 | CCCC(NC(=O)c1cc(OC)cc(OC)c1)C(=O)Nc1nc2ccccc2[nH]1 (centres undefined)
837 | CS(=O)(=O)c1ccccc1NC(=O)C1CCCCN1S(=O)(=O)c1cccs1 (centres undefined)
913 | CCOc1ccc(NC(=O)N2CCc3cn(C)c4cccc(c34)C2)cc1
739 | Cc1nc(CC(=O)Nc2ccc(F)cc2F)cs1
648 | Cn1c(N2CCN(C(=O)c3c(F)cccc3F)CC2)cc(=O)n(C)c1=O
1030 | Cc1ccc(NC(=O)N2CCCC2c2nc(-c3ccccc3)no2)cc1C (centres undefined)
669 | COCC(=O)NC1CCC12CCN(C(=O)c1cccs1)CC2 (centres undefined)
1060 | CCCn1c(=O)sc2cc(S(=O)(=O)N3CCC(C(=O)Nc4cc(C)cc(C)c4)CC3)ccc21
1190 | COc1ccc(Cn2c(=O)c3sccc3n(Cc3nc(-c4ccc(Cl)c(F)c4)no3)c2=O)cc1
1020 | Cc1cc(C)cc(NC(=O)C2CCN(S(=O)(=O)c3cc(-c4noc(C5CC5)n4)cs3)CC2)c1
952 | COC(=O)c1c(C)[nH]c(C(=O)N2CCCC(C(=O)N3CCN(c4cccc(Cl)c4)CC3)C2)c1C (centres undefined)
850 | Cc1ncsc1C1N(C2CCN(S(=O)(=O)c3ccccc3)CC2)C(=O)C12CCCC2 (centres undefined)

SMILES | RP-LC retention time [s]
O=C(Cn1c(Cc2ccccc2)nc2ccccc21)N1CCCCCC1 | 670
